Results reported in US4328242A, “α-(3,4,5-Trimethoxyhenzoyl)thiopropionyl-glycine” (Ausoria Farmaceutici S.r.l., priority 1980, dated 1982).

Tests used:
rats [1] = test: Protective activity of the liver in the intoxication caused by CCl4 (BSF elimination); format: in vivo; settings: rats intoxicated with CCl4; 200 and 400 mg/kg orally, 14 days; BSF 10 mg/kg i.v. on day 15; proportionate to the dosage
Method: The animals, that is rats, were intoxicated with CCl4 for a period of seven days. They were treated during the same days and for a subsequent period of seven days with TBPG in the dose of 200 and 400 mg/kg orally and with α-mercaptopropionylglycine in the dose of 90 and 180 mg/kg orally. On the fifteenth day, the rats have been treated with BSF in the amount of 10 mg/kg intravenously.

[2] = format: in vivo; settings: rats, oral route, equimolar doses
[3] = Clinical tolerance with respect to gastric reactions; settings: in vivo
guinea pigs [4] = test: Protective activity in subacute bronchitis induced by inhalation of citric acid; format: in vivo; settings: 7.5% citric acid inhalation, oral, rectal or inhalation, 50 and 200 mg/kg, two weeks
rabbits [5] = test: Secretory activity in rabbits (bronchial secretion); format: in vivo
Excerpt: This activity has been determined using the method described by E. M. Boyd and C. F. Boyd, modified by P. C. Braga, et al described in Bronchial Hypersecretion, 1973. This activity has been determined every hour for a period of four hours by measuring the amount of bronchial secretion derived from the laryngo-tracheal organs and from the tracheo-bronchial organs of rabbits.

rats [6] = test: Chronic toxicity in rats; format: in vivo; settings: 24 weeks, 125 and 250 mg/kg oral, 200 mg/kg by inhalation
Method: (§1) The chronic toxicity of TBPG has been investigated in rats and dogs treated for a period of 24 weeks with 125 mg/kg and 250 mg/kg by the oral route and 200 mg/kg by inhalation.

Stability to light = format: physicochemical; settings: powder form, light of a 60 watt lamp, three months
Acute toxicity in rats = format: in vivo; settings: rat, in vivo; for mortality at 240 h: read-out: % Death; for LD50 at 240 h: 10 days observation, probits, read-out: DL50 mg/kg (Confidential Limits)
Method: (§2) The acute toxicity has been studied with Swiss albino rats and Wistar albino rats and in both instances, animals of both sexes have been used. The product is administered orally and endoperitoneally and the period of observation is ten days after the initial treatment. The values of DL50 by the statistical method with confidential limits up to 95% are calculated by means of the method of probits reported in Table I. Probits is a statistical unit of probable deviation used in biological assays; equal to the normal equivalent deviate increased by 5, used to make all normal equivalent deviation values positive.

Rats [7] = test: Acute toxicity in rats; format: in vivo; settings: 20 tested
Method: as §2

dogs = test: Chronic toxicity in dogs; format: in vivo; settings: 24 weeks, 125 and 250 mg/kg oral, 200 mg/kg by inhalation
Method: as §1

rabbits [8] = test: Subchronic toxicity, rectal route; format: in vivo; settings: eight consecutive weeks
rats [9] = test: Action on the period of sleep induced by barbiturates; format: in vivo; settings: rats intoxicated with CCl4; 200 and 400 mg/kg orally, two days; clear correlation between dosage and effect
Method: The activity of TBPG administered for two days in the dose of 200 and 400 mg/kg orally, has been determined on the basis of the reduction of the period of sleep induced by Nembutal on rats intoxicated with CCl4.

[10] = target: T1, glutathione peroxidase (GSHP) (Homo sapiens, UniProt P07203); test: Action on the glutathione peroxidase (GSHP); format: biochemical; settings: system glutathione/NADPH/GSH-reductase/cumene hydroperoxide; read-out: apparent Ki
T1 sequence (P07203 1-203): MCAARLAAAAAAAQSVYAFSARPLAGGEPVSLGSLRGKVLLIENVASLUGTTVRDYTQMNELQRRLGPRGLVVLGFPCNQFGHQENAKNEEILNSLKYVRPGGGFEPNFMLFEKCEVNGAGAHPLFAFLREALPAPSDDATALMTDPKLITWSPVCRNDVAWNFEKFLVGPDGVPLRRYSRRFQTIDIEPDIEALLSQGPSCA
Excerpt: The experiment has been carried out for the purpose of determining the inhibitory activity if any of TBPG with respect to GSHP, an enzyme well known connected with phlogistic processes.
The results have been obtained using the system glutathione/NADPH/GSH-reductase/cumene hydroperoxide and have shown that TBPG is capable of exerting an inhibitory activity on GSHP with an apparent Ki 5.4.10^-3 molar.

rats [11] = test: Regenerative action in partial hepatectomy; format: in vivo; settings: partial hepatectomy (70% excision), 200 and 400 mg/kg oral, six days
Acute toxicity in mice = format: in vivo; settings: mouse, in vivo; for mortality at 240 h: read-out: % Death; for LD50 at 240 h: 10 days observation, probits, read-out: DL50 mg/kg (Confidential Limits)
Mice = test: Acute toxicity in mice; format: in vivo; settings: 20 tested
guinea pigs [12] = test: Antibronchospastic activity, histamine aerosol; format: in vivo; settings: oral, rectal or inhalation, 200 and 400 mg/kg
Excerpt: Histamine administered in the form of an aerosol has caused in guinea pigs symptoms of broncho-spasm accompanied by convulsions, irreversible collapse and death.

[13] = with respect to the control animals

## COc1cc(C(=O)SC(C)C(=O)NCC(=O)O)cc(OC)c1OC (stereo not drawn) [TBPG, α-(3,4,5-trimethoxybenzoyl)thiopropionylglycine]
Rats [1]
  elimination of BSF (hematic concentrations): favors the elimination of BSF in a statistically significant manner
[2]
  concentration in the kidney: high concentrations in the kidney
  distribution in the organs: sufficiently homogenous
[2]; statistically significant
  content in the lungs with respect to α-mercaptopropionylglycine: substantially higher content in the lungs
[3]
  clinical tolerance with respect to gastric reactions: optimum clinical tolerance
Guinea pigs [4]
  mortality index: substantially reduced
  protective action on bronchial conditions (macro and micro examination of the lungs): effective protective action in proportion to the dose
Rabbits [5]; oral, rectal or inhalation, 50 and 200 mg/kg, every hour for four hours
  laryngo-bronchial secretion: increase in a significant manner and proportionally to the dosage
Rabbits [5]; [13]
  laryngo-tracheal secretion: equal to the activity of α-mercaptopropionylglycine
  tracheo-bronchial secretion: more substantial activity
Rats [6]
  chronic toxicity (symptoms, behavior, deaths, body growth, hematology, hepatic and renal functions, organs): totally innocuous
Stability to light
  stability to light: undergoes no change
Acute toxicity in rats; ip, 1500 mg/kg
  mortality at 240 h: 0%
Acute toxicity in rats; ip, 2000 mg/kg
  mortality at 240 h: 30%
Acute toxicity in rats; ip, 2500 mg/kg
  mortality at 240 h: 45%
Acute toxicity in rats; ip, 3000 mg/kg
  mortality at 240 h: 70%
Acute toxicity in rats; ip, 3500 mg/kg
  mortality at 240 h: 85%
Acute toxicity in rats; ip, 95% limits (2483-2887)
  LD50 at 240 h: 2670 mg/kg
Acute toxicity in rats; po, orally, 3000 mg/kg
  mortality at 240 h: 5%
Acute toxicity in rats; po, orally, 4000 mg/kg
  mortality at 240 h: 30%
Acute toxicity in rats; po, orally, 5000 mg/kg
  mortality at 240 h: 45%
Acute toxicity in rats; po, orally, 6000 mg/kg
  mortality at 240 h: 60%
Acute toxicity in rats; po, orally, 7000 mg/kg
  mortality at 240 h: 85%
Acute toxicity in rats; po, orally, 95% limits (4879-5873)
  LD50 at 240 h: 5230 mg/kg
Rats [7]; i.p., 1500 mg/kg
  No. of Animals Dead: 0
Rats [7]; i.p., 2000 mg/kg
  No. of Animals Dead: 6
Rats [7]; i.p., 2500 mg/kg
  No. of Animals Dead: 9
Rats [7]; i.p., 3000 mg/kg
  No. of Animals Dead: 14
Rats [7]; i.p., 3500 mg/kg
  No. of Animals Dead: 17
Rats [7]; orally, 3000 mg/kg
  No. of Animals Dead: 1
Rats [7]; orally, 4000 mg/kg
  No. of Animals Dead: 6
Rats [7]; orally, 5000 mg/kg
  No. of Animals Dead: 9
Rats [7]; orally, 6000 mg/kg
  No. of Animals Dead: 12
Rats [7]; orally, 7000 mg/kg
  No. of Animals Dead: 17
dogs
  chronic toxicity (symptoms, behavior, deaths, body growth, hematology, hepatic and renal functions, organs): totally innocuous
Rabbits [8]; 400 mg/kg per day
  hematochemical data, hepatic and renal functions, autopsies and macro/microscopic controls of the main organs: have not shown any variations from the normal
Rabbits [8]; two suppositories per day equal to 400 mg/kg
  behavior and body growth of the animals: has not caused any irregularities
Rats [9]
  reduction of the period of sleep induced by Nembutal: very substantial
[10]
  Ki: 5.4 mM
Rats [11]
  regeneration of the hepatic tissue: favoring the regeneration of the hepatic tissue in statistically significant manner
Acute toxicity in mice; ip, 1500 mg/kg
  mortality at 240 h: 0%
Acute toxicity in mice; ip, 2000 mg/kg
  mortality at 240 h: 40%
Acute toxicity in mice; ip, 2500 mg/kg
  mortality at 240 h: 50%
Acute toxicity in mice; ip, 3000 mg/kg
  mortality at 240 h: 65%
Acute toxicity in mice; ip, 3500 mg/kg
  mortality at 240 h: 90%
Acute toxicity in mice; ip, 95% limits (2192-2963)
  LD50 at 240 h: 2530 mg/kg
Acute toxicity in mice; po, orally, 3000 mg/kg
  mortality at 240 h: 5%
Acute toxicity in mice; po, orally, 4000 mg/kg
  mortality at 240 h: 30%
Acute toxicity in mice; po, orally, 5000 mg/kg
  mortality at 240 h: 50%
Acute toxicity in mice; po, orally, 6000 mg/kg
  mortality at 240 h: 75%
Acute toxicity in mice; po, orally, 7000 mg/kg
  mortality at 240 h: 90%
Acute toxicity in mice; po, orally, 95% limits (4539-5254)
  LD50 at 240 h: 4860 mg/kg
Mice; i.p., 1500 mg/kg
  No. of Animals Dead: 0
Mice; i.p., 2000 mg/kg
  No. of Animals Dead: 8
Mice; i.p., 2500 mg/kg
  No. of Animals Dead: 10
Mice; i.p., 3000 mg/kg
  No. of Animals Dead: 13
Mice; i.p., 3500 mg/kg
  No. of Animals Dead: 18
Mice; orally, 3000 mg/kg
  No. of Animals Dead: 1
Mice; orally, 4000 mg/kg
  No. of Animals Dead: 6
Mice; orally, 5000 mg/kg
  No. of Animals Dead: 10
Mice; orally, 6000 mg/kg
  No. of Animals Dead: 15
Mice; orally, 7000 mg/kg
  No. of Animals Dead: 18
Guinea pigs [12]
  period of time between administration of the histamine aerosol and appearance of bronchospastic symptoms: increased very substantially
